According to patent US20180147301A1, “SOLID ORAL COMPOSITION CONTAINING DYES” (COSMO TECHNOLOGIES LTD., priority 2016, published 2018):

Key:
[1] = molecular target: T1, CYP 1A2 (Homo sapiens, UniProt P05177)
T1 sequence (P05177 1-516): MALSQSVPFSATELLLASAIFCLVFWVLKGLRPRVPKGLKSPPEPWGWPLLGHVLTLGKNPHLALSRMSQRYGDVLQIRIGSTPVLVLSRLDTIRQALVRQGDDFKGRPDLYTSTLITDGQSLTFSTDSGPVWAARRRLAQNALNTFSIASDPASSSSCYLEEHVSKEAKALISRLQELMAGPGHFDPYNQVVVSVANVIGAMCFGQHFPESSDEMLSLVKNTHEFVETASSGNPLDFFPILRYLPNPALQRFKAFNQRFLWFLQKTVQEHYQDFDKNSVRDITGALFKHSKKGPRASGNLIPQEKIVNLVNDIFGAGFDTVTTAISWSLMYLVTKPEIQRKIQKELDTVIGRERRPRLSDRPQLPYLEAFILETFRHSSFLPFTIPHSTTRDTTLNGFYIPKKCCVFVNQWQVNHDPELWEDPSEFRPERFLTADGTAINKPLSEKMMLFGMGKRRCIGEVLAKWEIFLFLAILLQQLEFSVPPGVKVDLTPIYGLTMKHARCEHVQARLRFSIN

[2] = molecular target: T2, CYP 2B6 (Homo sapiens, UniProt P20813)
T2 sequence (P20813 1-491): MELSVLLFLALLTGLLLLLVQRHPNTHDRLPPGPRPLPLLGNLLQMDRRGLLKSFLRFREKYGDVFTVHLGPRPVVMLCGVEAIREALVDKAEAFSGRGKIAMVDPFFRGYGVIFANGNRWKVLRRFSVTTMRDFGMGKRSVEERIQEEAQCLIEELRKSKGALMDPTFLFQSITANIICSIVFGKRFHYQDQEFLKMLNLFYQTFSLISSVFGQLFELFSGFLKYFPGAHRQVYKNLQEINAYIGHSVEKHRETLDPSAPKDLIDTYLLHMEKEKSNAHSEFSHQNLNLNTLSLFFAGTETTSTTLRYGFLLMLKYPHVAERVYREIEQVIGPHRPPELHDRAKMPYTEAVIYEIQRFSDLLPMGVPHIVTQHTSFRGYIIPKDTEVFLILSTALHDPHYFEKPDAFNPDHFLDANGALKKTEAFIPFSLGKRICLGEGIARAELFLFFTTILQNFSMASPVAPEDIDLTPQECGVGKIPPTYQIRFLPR

[3] = molecular target: T3, CYP 2C8 (Homo sapiens, UniProt P10632)
T3 sequence (P10632 1-490): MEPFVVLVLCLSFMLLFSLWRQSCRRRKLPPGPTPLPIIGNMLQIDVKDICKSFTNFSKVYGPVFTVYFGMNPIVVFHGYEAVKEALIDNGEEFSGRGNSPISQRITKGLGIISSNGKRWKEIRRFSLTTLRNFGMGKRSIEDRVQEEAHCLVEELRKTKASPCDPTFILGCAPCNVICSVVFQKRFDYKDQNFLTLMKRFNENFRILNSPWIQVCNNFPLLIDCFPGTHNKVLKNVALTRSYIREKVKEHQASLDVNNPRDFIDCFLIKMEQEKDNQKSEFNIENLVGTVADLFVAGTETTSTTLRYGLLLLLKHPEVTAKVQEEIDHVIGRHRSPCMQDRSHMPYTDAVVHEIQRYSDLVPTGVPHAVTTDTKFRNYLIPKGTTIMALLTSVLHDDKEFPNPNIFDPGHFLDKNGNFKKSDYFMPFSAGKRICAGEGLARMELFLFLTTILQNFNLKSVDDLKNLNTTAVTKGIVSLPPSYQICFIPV

[4] = molecular target: CYP 2D6 (Homo sapiens, UniProt P10635)
[5] = molecular target: CYP 2C9 (Homo sapiens, UniProt P11712)
[6] = molecular target: T4, P-gp (Homo sapiens, UniProt P08183); assay: in vitro transporter substrate study; format: in vitro ADME
[7] = system: CYP 3A4/5
[8] = molecular target: CYP 2C19 (Homo sapiens, UniProt P33261)
[9] = molecular target: T4, P-gp; assay: in vitro transporter inhibition study; format: in vitro ADME

T4 sequence (P08183 whole entry): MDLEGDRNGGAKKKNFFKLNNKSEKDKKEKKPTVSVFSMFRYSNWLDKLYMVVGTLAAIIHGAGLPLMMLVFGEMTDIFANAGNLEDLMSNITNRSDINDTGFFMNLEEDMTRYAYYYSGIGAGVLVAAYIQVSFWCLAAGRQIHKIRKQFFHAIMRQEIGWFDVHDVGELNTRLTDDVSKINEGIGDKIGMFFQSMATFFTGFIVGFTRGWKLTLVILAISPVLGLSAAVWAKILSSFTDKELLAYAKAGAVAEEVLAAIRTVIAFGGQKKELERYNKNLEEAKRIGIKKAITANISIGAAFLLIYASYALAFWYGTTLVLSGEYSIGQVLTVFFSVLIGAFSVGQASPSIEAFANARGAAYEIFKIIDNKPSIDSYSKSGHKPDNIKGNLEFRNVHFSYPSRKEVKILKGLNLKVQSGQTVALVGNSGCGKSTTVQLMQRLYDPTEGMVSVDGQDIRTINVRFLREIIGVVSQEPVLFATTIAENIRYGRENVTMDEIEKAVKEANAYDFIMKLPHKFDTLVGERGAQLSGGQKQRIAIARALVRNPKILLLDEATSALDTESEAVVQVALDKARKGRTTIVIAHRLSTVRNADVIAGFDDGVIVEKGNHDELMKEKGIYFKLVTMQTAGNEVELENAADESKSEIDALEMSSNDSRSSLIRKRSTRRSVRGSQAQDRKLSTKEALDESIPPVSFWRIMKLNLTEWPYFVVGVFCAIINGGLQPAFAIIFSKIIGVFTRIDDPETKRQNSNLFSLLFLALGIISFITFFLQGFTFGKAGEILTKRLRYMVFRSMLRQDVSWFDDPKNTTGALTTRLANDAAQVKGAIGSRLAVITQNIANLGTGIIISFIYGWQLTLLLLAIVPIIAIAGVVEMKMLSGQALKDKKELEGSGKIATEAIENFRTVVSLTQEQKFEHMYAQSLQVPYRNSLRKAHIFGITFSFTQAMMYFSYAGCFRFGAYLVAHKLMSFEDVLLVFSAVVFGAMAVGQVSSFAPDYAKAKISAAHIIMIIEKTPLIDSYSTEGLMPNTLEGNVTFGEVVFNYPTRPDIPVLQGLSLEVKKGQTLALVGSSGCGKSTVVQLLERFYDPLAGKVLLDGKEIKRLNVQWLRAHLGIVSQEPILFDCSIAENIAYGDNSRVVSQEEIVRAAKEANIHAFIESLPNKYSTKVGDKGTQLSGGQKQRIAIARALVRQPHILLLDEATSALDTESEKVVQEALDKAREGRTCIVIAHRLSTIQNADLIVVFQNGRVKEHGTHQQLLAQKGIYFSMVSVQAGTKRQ
Chain of CYP 2C9 (P11712 whole entry): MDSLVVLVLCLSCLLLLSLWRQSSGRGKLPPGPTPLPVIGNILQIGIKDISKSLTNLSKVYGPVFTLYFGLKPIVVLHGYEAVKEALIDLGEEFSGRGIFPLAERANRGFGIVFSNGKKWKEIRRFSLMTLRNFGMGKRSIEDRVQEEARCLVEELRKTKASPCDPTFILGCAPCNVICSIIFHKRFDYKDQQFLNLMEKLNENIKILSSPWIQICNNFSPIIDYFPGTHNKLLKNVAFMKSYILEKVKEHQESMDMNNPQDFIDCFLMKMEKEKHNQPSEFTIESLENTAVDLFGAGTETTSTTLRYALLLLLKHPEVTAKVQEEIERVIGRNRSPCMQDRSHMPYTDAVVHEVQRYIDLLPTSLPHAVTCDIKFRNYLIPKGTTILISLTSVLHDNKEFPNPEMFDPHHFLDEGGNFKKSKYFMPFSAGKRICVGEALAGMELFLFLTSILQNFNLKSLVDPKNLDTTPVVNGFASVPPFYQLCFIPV
Chain of CYP 2C19 (P33261 whole entry): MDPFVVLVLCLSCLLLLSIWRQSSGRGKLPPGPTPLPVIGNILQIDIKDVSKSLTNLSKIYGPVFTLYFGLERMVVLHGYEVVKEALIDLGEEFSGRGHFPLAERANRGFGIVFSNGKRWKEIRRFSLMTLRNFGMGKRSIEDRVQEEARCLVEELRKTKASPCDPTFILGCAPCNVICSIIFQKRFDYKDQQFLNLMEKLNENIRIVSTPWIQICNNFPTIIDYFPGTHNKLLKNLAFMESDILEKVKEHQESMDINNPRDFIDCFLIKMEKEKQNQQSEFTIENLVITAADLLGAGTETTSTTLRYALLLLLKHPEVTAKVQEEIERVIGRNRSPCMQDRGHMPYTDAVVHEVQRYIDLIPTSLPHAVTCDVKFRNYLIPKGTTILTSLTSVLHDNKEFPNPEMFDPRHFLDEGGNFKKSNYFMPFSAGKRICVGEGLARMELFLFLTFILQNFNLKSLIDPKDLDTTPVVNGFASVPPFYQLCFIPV
Chain of CYP 2D6 (P10635 whole entry): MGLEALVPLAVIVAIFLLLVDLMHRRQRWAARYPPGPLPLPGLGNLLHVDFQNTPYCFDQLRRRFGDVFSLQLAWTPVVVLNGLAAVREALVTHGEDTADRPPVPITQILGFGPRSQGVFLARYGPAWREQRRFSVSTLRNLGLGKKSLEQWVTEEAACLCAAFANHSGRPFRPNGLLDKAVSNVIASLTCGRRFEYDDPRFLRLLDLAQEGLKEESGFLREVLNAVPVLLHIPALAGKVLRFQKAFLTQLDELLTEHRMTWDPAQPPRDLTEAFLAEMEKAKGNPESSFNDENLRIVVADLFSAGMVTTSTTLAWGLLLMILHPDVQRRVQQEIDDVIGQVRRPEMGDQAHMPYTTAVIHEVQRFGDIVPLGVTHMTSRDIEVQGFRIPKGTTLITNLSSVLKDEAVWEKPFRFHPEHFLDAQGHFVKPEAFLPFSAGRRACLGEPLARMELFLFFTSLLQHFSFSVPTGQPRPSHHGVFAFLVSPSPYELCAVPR

Compound: CN(C)c1ccc2nc3ccc(=[N+](C)C)cc-3sc2c1 [Methylene blue, Methylthioninium Chloride (Methylene Blue)]
- inhibition of CYP isozyme 1A2 [1]: inhibits
- inhibition of CYP isozyme 2B6 [2]: inhibits
- inhibition of CYP isozyme 2C8 [3]: inhibits
- inhibition of CYP isozyme 2D6 [4]: inhibits
- inhibition of CYP isozyme 2C9 [5]: inhibits
- substrate of membrane transport protein P-gp [6]: possible substrate
- inhibition of CYP isozyme 3A4/5 [7]: inhibits
- inhibition of CYP isozyme 2C19 [8]: inhibits
- inhibitor of P-gp [9]: weak inhibitor
